The results in this text go back to patent US9687479B2, “Multisubstituted aromatic compounds as serine protease inhibitors” (VERSEON CORPORATION, priority 2013, dated 2017).

Where only a bound is given, the exact number is not on record here.

The target in the experiment is Human thrombin (Homo sapiens (Human), UniProt P00734). Put plainly: Thrombin protease activity inhibition assay (chromogenic substrate S-2238). Format: biochemical. To be noted: 3 nM thrombin, 125 μM S-2238, 10 min pre-incubation, RT. In short, it runs like this: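 Thrombin at 3 nM final in 0.05 M Tris pH 7.4, 0.015 M NaCl, 0.01% PEG-8000, at room temperature; compounds as ten-point three-fold dilutions.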
In turn, `O=C(c1cccs1)n1nc(-c2cccn(Cc3cccnc3)c2=O)cc1NCc1ccc(Cl)s1` [Cmpd 187, 3-(5-[(5-chlorothiophen-2-yl)methyl]amino-1-[(thiophen-2-yl)carbonyl]-1H-pyrazol-3-yl)-1-(pyridin-3-ylmethyl)-1,2-dihydropyridin-2-one] came in with an IC50 below 100 nM.

Regarding `O=C(c1cccs1)n1nc(-c2cccn(Cc3ccncc3)c2=O)cc1NCc1ccc(Cl)s1` [Cmpd 188, 3-(5-[(5-chlorothiophen-2-yl)methyl]amino-1-[(thiophen-2-yl)carbonyl]-1H-pyrazol-3-yl)-1-(pyridin-4-ylmethyl)-1,2-dihydropyridin-2-one], the IC50 was below 100 nM.

`O=C(c1cccs1)n1nc(-c2cccn(Cc3ncccn3)c2=O)cc1NCc1ccc(Cl)s1` [Cmpd 189, 3-(5-[(5-chlorothiophen-2-yl)methyl]amino-1-[(thiophen-2-yl)carbonyl]-1H-pyrazol-3-yl)-1-(pyrimidin-2-ylmethyl)-1,2-dihydropyridin-2-one] yielded an IC50 below 100 nM.

As for `O=C(c1cccs1)n1nc(-c2cccn(Cc3cccs3)c2=O)cc1NCc1ccc(Cl)s1` [Cmpd 190, 3-(5-[(5-chlorothiophen-2-yl)methyl]amino-1-[(thiophen-2-yl)carbonyl]-1H-pyrazol-3-yl)-1-(thiophen-2-ylmethyl)-1,2-dihydropyridin-2-one], the 50% inhibitory concentration (IC50) was below 100 nM.

As for `O=C(c1cccs1)n1nc(-c2cccn(Cc3ccsc3)c2=O)cc1NCc1ccc(Cl)s1` [Cmpd 191, 3-(5-[(5-chlorothiophen-2-yl)methyl]amino-1-[(thiophen-2-yl)carbonyl]-1H-pyrazol-3-yl)-1-(thiophen-3-ylmethyl)-1,2-dihydropyridin-2-one], the IC50 was below 100 nM.

`O=C(c1cccs1)n1nc(-c2cccn(CCN3CCOCC3)c2=O)cc1NCc1ccc(Cl)s1` [Cmpd 192, 3-(5-[(5-chlorothiophen-2-yl)methyl]amino-1-[(thiophen-2-yl)carbonyl]-1H-pyrazol-3-yl)-1-[2-(morpholin-4-yl)ethyl]-1,2-dihydropyridin-2-one] gave a 50% inhibitory concentration (IC50) above 100000 nM.

For `O=C(c1ccsc1)n1nc(-c2ccc[nH]c2=O)cc1NCc1ccc(Cl)s1` [Cmpd 193, 3-(5-[(5-chlorothiophen-2-yl)methyl]amino-1-[(thiophen-3-yl)carbonyl]-1H-pyrazol-3-yl)-1,2-dihydropyridin-2-one], the IC50 is below 100 nM.

For `O=C(c1ccsc1)n1nc(-c2cccn(Cc3ccco3)c2=O)cc1NCc1ccc(Cl)s1` [Cmpd 195, 3-(5-[(5-chlorothiophen-2-yl)methyl]amino-1-[(thiophen-3-yl)carbonyl]-1H-pyrazol-3-yl)-1-(furan-2-ylmethyl)-1,2-dihydropyridin-2-one], the half-maximal inhibitory concentration (IC50) was below 100 nM.

As for `O=C(c1ccsc1)n1nc(-c2cccn(Cc3cccnn3)c2=O)cc1NCc1ccc(Cl)s1` [Cmpd 197, 3-(5-[(5-chlorothiophen-2-yl)methyl]amino-1-[(thiophen-3-yl)carbonyl]-1H-pyrazol-3-yl)-1-(pyridazin-3-ylmethyl)-1,2-dihydropyridin-2-one], the IC50 was below 100 nM.

`O=C(c1ccsc1)n1nc(-c2cccn(Cc3cccnc3)c2=O)cc1NCc1ccc(Cl)s1` [Cmpd 199, 3-(5-[(5-chlorothiophen-2-yl)methyl]amino-1-[(thiophen-3-yl)carbonyl]-1H-pyrazol-3-yl)-1-(pyridin-3-ylmethyl)-1,2-dihydropyridin-2-one] returned an IC50 above 100000 nM.

As for `O=C(c1ccsc1)n1nc(-c2cccn(Cc3ccncc3)c2=O)cc1NCc1ccc(Cl)s1` [Cmpd 200, 3-(5-[(5-chlorothiophen-2-yl)methyl]amino-1-[(thiophen-3-yl)carbonyl]-1H-pyrazol-3-yl)-1-(pyridin-4-ylmethyl)-1,2-dihydropyridin-2-one], the IC50 is below 100 nM.

Compound `O=C(c1ccsc1)n1nc(-c2cccn(Cc3cccs3)c2=O)cc1NCc1ccc(Cl)s1` [Cmpd 202, 3-(5-[(5-chlorothiophen-2-yl)methyl]amino-1-[(thiophen-3-yl)carbonyl]-1H-pyrazol-3-yl)-1-(thiophen-2-ylmethyl)-1,2-dihydropyridin-2-one] registered an IC50 below 100 nM.

On to `O=C(c1ccsc1)n1nc(-c2cccn(CCN3CCOCC3)c2=O)cc1NCc1ccc(Cl)s1` [Cmpd 204, 3-(5-[(5-chlorothiophen-2-yl)methyl]amino-1-[(thiophen-3-yl)carbonyl]-1H-pyrazol-3-yl)-1-[2-(morpholin-4-yl)ethyl]-1,2-dihydropyridin-2-one], for which the IC50 was below 100 nM.

`O=C(c1ccccc1N1CCOCC1)n1nc(-c2ccc[nH]c2=O)cc1NCc1ccc(Cl)s1` [Cmpd 205, 3-(5-[(5-chlorothiophen-2-yl)methyl]amino-1-[2-(morpholin-4-yl)phenyl]carbonyl-1H-pyrazol-3-yl)-1,2-dihydropyridin-2-one]: the IC50 lay in the range of 1000 to 10000 nM.

In the case of `COCCOc1ccc(C(=O)n2nc(-c3ccc[nH]c3=O)cc2NCc2ccc(Cl)s2)cc1` [Cmpd 206, 3-(5-[(5-chlorothiophen-2-yl)methyl]amino-1-[4-(2-methoxyethoxy)phenyl]carbonyl-1H-pyrazol-3-yl)-1,2-dihydropyridin-2-one], the IC50 is below 100 nM.

The compound `O=C(c1ccc(N2CCOCC2)cc1)n1nc(-c2ccc[nH]c2=O)cc1NCc1ccc(Cl)s1` [Cmpd 207, 3-(5-[(5-chlorothiophen-2-yl)methyl]amino-1-[4-(morpholin-4-yl)phenyl]carbonyl-1H-pyrazol-3-yl)-1,2-dihydropyridin-2-one] gave an IC50 below 100 nM.

On to `O=C(c1ccc(N2CCOCC2)cc1)n1nc(-c2cccn(Cc3ccco3)c2=O)cc1NCc1ccc(Cl)s1` [Cmpd 209, 3-(5-[(5-chlorothiophen-2-yl)methyl]amino-1-[4-(morpholin-4-yl)phenyl]carbonyl-1H-pyrazol-3-yl)-1-(furan-2-ylmethyl)-1,2-dihydropyridin-2-one], for which the IC50 is below 100 nM.

Compound `O=C(c1ccc(N2CCOCC2)cc1)n1nc(-c2cccn(Cc3cccnn3)c2=O)cc1NCc1ccc(Cl)s1` [Cmpd 211, 3-(5-[(5-chlorothiophen-2-yl)methyl]amino-1-[4-(morpholin-4-yl)phenyl]carbonyl-1H-pyrazol-3-yl)-1-(pyridazin-3-ylmethyl)-1,2-dihydropyridin-2-one] registered a half-inhibitory concentration (IC50) below 100 nM.

`O=C(c1ccc(N2CCOCC2)cc1)n1nc(-c2cccn(Cc3ccccn3)c2=O)cc1NCc1ccc(Cl)s1` [Cmpd 212, 3-(5-[(5-chlorothiophen-2-yl)methyl]amino-1-[4-(morpholin-4-yl)phenyl]carbonyl-1H-pyrazol-3-yl)-1-(pyridin-2-ylmethyl)-1,2-dihydropyridin-2-one] came in with an IC50 below 100 nM.

`O=C(c1ccc(N2CCOCC2)cc1)n1nc(-c2cccn(Cc3ncccn3)c2=O)cc1NCc1ccc(Cl)s1` [Cmpd 215, 3-(5-[(5-chlorothiophen-2-yl)methyl]amino-1-[4-(morpholin-4-yl)phenyl]carbonyl-1H-pyrazol-3-yl)-1-(pyrimidin-2-ylmethyl)-1,2-dihydropyridin-2-one]: the IC50 is below 100 nM.

The compound `O=C(c1ccc(N2CCOCC2)cc1)n1nc(-c2cccn(Cc3cccs3)c2=O)cc1NCc1ccc(Cl)s1` [Cmpd 216, 3-(5-[(5-chlorothiophen-2-yl)methyl]amino-1-[4-(morpholin-4-yl)phenyl]carbonyl-1H-pyrazol-3-yl)-1-(thiophen-2-ylmethyl)-1,2-dihydropyridin-2-one] yielded an IC50 below 100 nM.

For orientation: IC50 means the concentration needed to halve the response being measured. The low end stands for higher potency, the high end for lower potency.
